Data reported in US12616750B2, “Combination therapy utilizing DNA alkylating agents and ATR inhibitors” (Merck Patent GmbH, priority 2018, dated 2026).

What was measured:
[1] = Xenograft experiment, tolerability (body weight); parameters: species or system H2d Rag2 mice; settings: mouse, in vivo
Protocol: The tolerability of the anti-cancer treatment was assessed considering the overall condition of the animal as well as body-weight changes of the mice (FIG. 22).

MDA-MB-468 cells [2] = assay: Dose-matrix combination assay (synergy score, Loewe model); type: cell-based; settings: combination with DUBA; MDA-MB-468, 6 d; S ± SD; cutoff ±1
Protocol: (§1) Dose-matrix combination assays were performed as described above, but performed in opague 384-well plates (2k viable cells/well). Compounds were added using Tecan D300e liquid. Protein solutions were supplemented with 0.3% Tween-20 (final) and diluted to 1 μM. All wells were normalized to the maximum amount of DMSO (maximum 0.4%) or Tween-20 added. […] Luminescence values were normalized to luminescence of non-treated cells and dose-response was fitted using Smart Fit. Synergy scores were calculated using LOEWE synergy model.
(§2) The screening of synergistic drug combinations can be accomplished by performing a dose-matrix assay. Therefore, two drugs are serial diluted and mixed at every dose level, yielding a dose-matrix. The drug combination can be additive if the effects of the combination are identical to the added effects of the single agents. However, the effects of the combination might also be stronger than the activity of the single agents. This scenario is termed synergy, whereas weaker combination effects compared to the single agents are termed antagonism. A dose-matrix assay is depicted schematically in FIG. 2 which illustrates the outcomes of a dose-matrix assay: additivity, antagonism and synergy.
(§3) The screening was conducted by serial diluting the duocarmycin derivative DUBA (10) and the DDR inhibitors. […] DUBA was combined in a dose-matrix assay with hycanthone. The cell viability was measured after 6 d of treatment using the CellTiter-Glo assay kit. The signals of the cell viability assay were normalized to untreated cells and fitted. […] By subtracting the modeled data from the fitted data, an excess matrix was generated. The excess matrix can be considered as a visualization of the differences between model and actual data which also highlights spots of either high synergy or antagonism. The quantification of the combination effects, however, was performed by calculating synergy scores. […] Besides synergy score, the potency of the drugs in monotherapy was obtained from these experiments. […] The potency was obtained from this dose-response curve.
(§4) The scattering of S was determined in a sham control experiment to define a cutoff for classifying a combination as truly synergistic or antagonistic. Thus seven different compounds were combined with itself on four different cell lines and the three-σ confidence interval was calculated around the mean of the measurement. […] For the sake of convenience, the cutoff was set to a value of ±1.
(§5) Synergy scores (S) were obtained from the combination experiments that indicated additivity […] if model and actual response were equal. […] The magnitude of the score determined the extent of the combination effects.

HCC-1954 cells [3] = assay: as above; type: cell-based; settings: combination with DUBA
Protocol: as §1, §2, §3, §4, §5

Calu-3 cells = assay: MNED curve-shift assay; type: cell-based
Excerpt: (§6) Therefore a curve-shift assay system was established. In a first step, a dose-response curve (DRC) is obtained by treating a certain cell line with an inhibitor. The maximum non-efficacious dose (MNED) can be derived from this DRC. MNED is the highest dose, that can be added to a certain cell line without affecting the viability. The activity of the ADC is confirmed in a separate experiment. Finally, a combination experiment can be conducted. Therefore, the ADC and ADC plus inhibitor at MNED are added to the cells. The inhibitor is tested in parallel at MNED as a control. Due to the application of inhibitor at MNED, no reduction in cell viability caused by the inhibitor is expected. Three outcomes are possible: 1) The combination of ADC plus inhibitor is equipotent as the ADC only. […] Such a result would be interpreted as depotentiation. […] In this case, the potency of the ADC is potentiated.
(§7) Potentiation effects are expressed as dose-reduction indices (DRI), which can be calculated by dividing the IC50-value of ADC by the IC50-value of ADC plus inhibitor according to eq. 1
(§8) Curve-shift assays were conducted as follows: The cell number and viability was determined using ViCell™-XR (Beckman Coulter) and seeded in opague 96-well plate (10k viable cells/well). After seeding, the plate was incubated (37° C., 5% C02) in a humid chamber overnight. Compounds were diluted in the appropriate medium, added to the cells and the plate was incubated (37° C., 5% CO2, 6 d) in a humid chamber. After 30 min equilibration at room temperature, CellTiter-Glo reagent (Promega) was added. After the plate was shaken (3 min, 550 rpm, rt) it was incubated (10 min, rt) and luminescence was read on a synergy 4 plate reader (BioTek). Evaluation was performed using GraphPad Prism version 6.05. Therefor luminescence values were normalized to luminescence values of non-treated cells and dose-response was fitted with 4-point logistic fit.
(§9) The determination of dose-reduction indices (DRI) in a maximum non-efficacious dose (MNED) curve-shift assay is a 3-step process as depicted exemplarily in FIG. 13. The cytotoxicity of the ADC is confirmed in a cell viability assay in an initial step. […] In the second step. the MNED of the ATRi was determined. […] In order to obtain a full […] for the combination, the starting concentration of the ADC was lowered compared to the experiment in step 1.

MDA-MB-468 cells [4] = assay: MNED curve-shift assay; type: cell-based
Excerpt: as §6, §7, §8, §9

SK-OV-3 cells = assay: MNED curve-shift assay; type: cell-based
Excerpt: as §6, §7, §8, §9

MDA-MB-361 cells = assay: MNED curve-shift assay; type: cell-based
Excerpt: as §6, §7, §8, §9

JIMT-1 cells = assay: MNED curve-shift assay; type: cell-based
Excerpt: as §6, §7, §8, §9

SK-BR-3 cells = assay: MNED curve-shift assay; type: cell-based
Excerpt: as §6, §7, §8, §9

HCC-1954 cells [5] = assay: MNED curve-shift assay; type: cell-based; settings: HCC-1954
Excerpt: as §6, §7, §8, §9

MDA-MB-453 cells [6] = assay: MNED curve-shift assay; type: cell-based
Excerpt: as §6, §7, §8, §9

BT-474 cells = assay: MNED curve-shift assay; type: cell-based
Excerpt: as §6, §7, §8, §9

NCI-N87 xenografts = assay: Xenograft experiment, therapeutic efficacy; settings: single agent: αHER2-6 1.0 mg/kg i.v. single dose; ATRi 50 mg/kg per oral once daily 14 d
Protocol: Female H2d Rag2 mice, 6-8 weeks old, were obtained from Taconic Biosciences, LLC. A xenograft was established by harvesting NCI-N87 cells from cell culture, mixing the cells 1:1 with Matrigel and injecting 2.5×10^6 cells subcutaneously into the flank of the mice. The tumor volume was assessed twice weekly by length measurements in two dimensions using calipers. The volume was calculated following eq. 3 where the length L is the longest tumor length and W is the shortest tumor length.
After an initial tumor growth phase, mice were randomized and assigned to treatment groups comprising 10 animals. The initial tumor volume amounted to approximately 100 mm^3 when treatment started. Vehicle treated mice obtained a solution of 0.5% Methocel, 0.25% Tween-20 in water. […] Mice were weighted twice weekly to assess the body-weight during the treatment period. The criteria to terminate the study for single animals were skin ulcerations, tumor length exceeding 15 mm or tumor exceeding 10% of the body weight. In addition, body weight loss was a criterium for termination if body weight loss exceeded 20% accompanied with a haggard appearance, body weight loss exceeded 20% on three successive days or if body weight loss exceeded 25% of the adjusted body weight.

NCI-N87 cells = assay: Dose-matrix combination assay (synergy score, Loewe model); type: cell-based; settings: NCI-N87
Protocol: (§10) Dose-matrix combination assays were performed as described above, but performed in opague 384-well plates (2k viable cells/well). Compounds were added using Tecan D300e liquid. Protein solutions were supplemented with 0.3% Tween-20 (final) and diluted to 1 μM. All wells were normalized to the maximum amount of DMSO (maximum 0.4%) or Tween-20 added. Read out of luminescence was performed on Envision 2104 Multilabel Reader (Perkin Elmer) and data were evaluated using Genedata Screener® version 14.0.6-Standard (Genedata AG). Luminescence values were normalized to luminescence of non-treated cells and dose-response was fitted using Smart Fit. Synergy scores were calculated using LOEWE synergy model.
as §2

MDA-MB-453 cells [7] = assay: as above; type: cell-based; settings: MDA-MB-453
Protocol: as §10, §2

## C[C@@H]1COCCN1c1cc(C2(S(C)(=N)=O)CC2)nc(-c2ccnc3[nH]ccc23)n1 (stereo partly drawn) [AZD6738, 4-{4-[(3R)-3-methylmorpholin-4-yl]-6-[1-(S-methylsulfonimidoyl)cyclopropyl]pyrimidin-2-yl}-1H-pyrrolo[2,3-b]pyridine]
[1]
  tolerability (conclusion): well tolerated
MDA-MB-468 cells [2]
  Synergy score S: 5.7±1.0
HCC-1954 cells [3]; HCC-1954, 6 d, S ± SD, cutoff ±1
  Synergy score S: 6.9±0.7
HCC-1954 cells [3]; cell line not given (screen on HCC-1954 or MDA-MB-468)
  Synergy score S: 7.6
HCC-1954 cells [3]; hotspot 160 to 630 nM AZD6738 and 0.16 to […] DUBA
  additional cancer cells killed versus additive (Loewe) prediction: up to 69%
Calu-3 cells
  MNED (maximum non-efficacious dose): 400 nM
MDA-MB-468 cells [4]
  MNED (maximum non-efficacious dose): 300 nM
SK-OV-3 cells
  MNED (maximum non-efficacious dose): 150 nM
MDA-MB-361 cells
  MNED (maximum non-efficacious dose): 111 nM
JIMT-1 cells
  MNED (maximum non-efficacious dose): 80 nM
SK-BR-3 cells
  MNED (maximum non-efficacious dose): 150 nM
HCC-1954 cells [5]
  MNED (maximum non-efficacious dose): 250 nM
MDA-MB-453 cells [6]
  MNED (maximum non-efficacious dose): 111 nM
BT-474 cells
  MNED (maximum non-efficacious dose): 1000 nM
NCI-N87 xenografts
  tumor response (tumor volume): not statistically different from the vehicle-treated group
NCI-N87 cells; combination with ADC αHER2-2
  Synergy score S: 3.7±0.7
NCI-N87 cells; combination with ADC αHER2-6
  Synergy score S: 3.0±0.05
MDA-MB-453 cells [7]; combination with ADC αHER2-2
  Synergy score S: 9.1±2.1
MDA-MB-453 cells [7]; combination with ADC αHER2-6
  Synergy score S: 9.5±0.9
